These results are taken from patent US11932595B2, “VDR-silent vitamin D derivative as inhibitors of SREBP and pharmaceutical use thereof” (KYOTO UNIVERSITY, priority 2020, dated 2024).

The nature of data set [1]: Short-term in vivo model: serum calcium levels. More on the design: species or system mice. The settings on record: 10 mg/kg intraperitoneally, after 4 days, n=3, FIG. 5D. The protocol: (§1) To quickly and simultaneously examine their SREBP inhibitory activity and VDR-derived calcemic activity in vivo, a short-term in vivo screening system of mice was established. With reference to the previous report (Horton, J. D. et al. Proc. Natl. Acad. Sci. U.S.A. 1998, 95, 5987-5992.), mice were fasted for 48 hours then refed a special diet (low fat, high carbohydrate diet, lacking in vitamin D) for 48 hours before sacrifice.
(§2) C57BL/6 and oh/oh mice were purchased from CLEA Japan and Charles River Japan, Inc., respectively. Animal experiments were carried out at the University of Tokyo and Charles River Laboratories. Low fat, high carbohydrate diet, lacking vitamin D was custom made by Research Diets, Inc. Compounds disclosed herein and 25(OH)D3 were dissolved in ethanol/Tween 20 (9:1) to obtain stock solution and then diluted 10-fold with PBS immediately before administration to mice.
(§3) 10 mg/kg compounds or vehicle control were administered intraperitoneally once every 24 hours during the fasting and refeeding.
Following sacrifice, mouse livers were fixed in 10% neutral-buffered formalin, embedded in paraffin, sectioned, and stained with H&E. Hepatic lipids were extracted with chloroform/methanol (2:1 v/v), and TG and cholesterol contents were measured with Triglyceride Reagent Set (Pointe Scientific) and Cholesterol E (Wako), respectively. Serum levels of ALT, TG, glucose, cholesterol, and calcium were measured in SRL Inc. (Tokyo). All experiments were approved by the Ethics Committee for Animal Experimentation of the University of Tokyo and Charles River Laboratories Japan, and were conducted in accordance with the Guidelines for the Care and Use of Laboratory Animals.
Serum calcium levels in the mice treated with vehicle, compounds, or 25(OH)D3 were determined (means±SEM, n=3 per group), *p<0.05 (FIG. 5D).

In data set [2] the test system is SREBP-responsive genes. The data set is described as follows: Short-term in vivo model (fasting/refeeding): hepatic mRNA of SREBP-responsive genes by real-time PCR. The arrangement: species or system mice. The procedure: as §1, §2, §3
Relative mRNA levels of SREBP-responsive genes were determined by real-time PCR in the livers obtained from the mice with free access to a normal diet or fasted and refed a special diet (means SEM, n=3 per group), *p<0.05.
Expression levels of SREBP-responsive genes were determined by real-time PCR in the livers obtained from the mice treated with indicated compounds (10 mg/kg) according to the protocol illustrated in FIG. 5A. Data are expressed as relative expression to the mean value of vehicle-treated mouse liver (means±SEM, n=3 per group), *p<0.05 (FIG. 5C).
Relative mRNA levels of SREBP-responsive genes were determined by real-time PCR in the livers obtained from the indicated mice Data are means±SEM (fed mice, n=3; others, n=6), *p<0.05 (FIG. 5E).
(Real-time PCR tracks product formation cycle by cycle.)

The target in data set [3] is T1, SCAP protein (Mus musculus, UniProt Q6GQT6).
T1 construct: from tissue; host or cells: mouse liver
T1 sequence (Q6GQT6 1-1276): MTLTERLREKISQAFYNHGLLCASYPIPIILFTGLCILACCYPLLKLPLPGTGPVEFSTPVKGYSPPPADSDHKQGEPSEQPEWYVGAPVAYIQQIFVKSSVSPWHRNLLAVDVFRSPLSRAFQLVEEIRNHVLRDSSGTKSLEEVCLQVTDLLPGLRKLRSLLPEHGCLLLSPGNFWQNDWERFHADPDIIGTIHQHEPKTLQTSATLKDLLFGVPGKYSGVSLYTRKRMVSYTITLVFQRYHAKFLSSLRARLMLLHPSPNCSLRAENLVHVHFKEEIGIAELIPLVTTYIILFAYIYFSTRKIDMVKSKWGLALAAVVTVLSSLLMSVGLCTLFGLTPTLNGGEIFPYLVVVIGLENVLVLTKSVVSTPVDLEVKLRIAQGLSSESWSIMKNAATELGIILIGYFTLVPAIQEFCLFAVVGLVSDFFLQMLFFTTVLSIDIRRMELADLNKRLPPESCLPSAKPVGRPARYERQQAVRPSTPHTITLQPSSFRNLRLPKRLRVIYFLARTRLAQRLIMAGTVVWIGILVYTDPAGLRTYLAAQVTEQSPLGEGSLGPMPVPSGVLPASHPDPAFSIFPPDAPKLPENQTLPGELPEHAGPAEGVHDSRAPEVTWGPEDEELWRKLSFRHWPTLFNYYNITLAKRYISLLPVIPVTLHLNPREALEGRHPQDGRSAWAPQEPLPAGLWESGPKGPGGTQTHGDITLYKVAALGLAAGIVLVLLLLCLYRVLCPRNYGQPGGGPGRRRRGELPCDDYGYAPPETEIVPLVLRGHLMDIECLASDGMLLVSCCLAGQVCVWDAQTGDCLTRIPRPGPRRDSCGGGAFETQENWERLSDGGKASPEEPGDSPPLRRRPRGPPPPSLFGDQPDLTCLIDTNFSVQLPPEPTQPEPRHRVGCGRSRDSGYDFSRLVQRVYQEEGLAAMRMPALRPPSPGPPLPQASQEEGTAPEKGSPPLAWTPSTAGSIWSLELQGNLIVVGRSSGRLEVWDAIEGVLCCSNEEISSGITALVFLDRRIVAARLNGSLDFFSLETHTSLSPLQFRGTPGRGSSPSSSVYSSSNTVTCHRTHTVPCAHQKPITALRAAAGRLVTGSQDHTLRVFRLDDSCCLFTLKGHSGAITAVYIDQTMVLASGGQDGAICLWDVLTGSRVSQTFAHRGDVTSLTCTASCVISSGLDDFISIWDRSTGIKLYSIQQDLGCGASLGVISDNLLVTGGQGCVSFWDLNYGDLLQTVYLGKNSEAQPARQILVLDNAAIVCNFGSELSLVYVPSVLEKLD
The data set is described as follows: Short-term in vivo model: Western blot of SCAP protein in the liver. The arrangement: species or system mice. Conditions: FIG. 5F. The procedure: as §1, with “sacrifice. 10 mg/kg compounds or vehicle control were administered intraperitoneally once every 24 hours during the fasting and refeeding. Western blot analysis of SCAP protein in the livers obtained from the indicated mice were obtained, (FIG. 5F).” for “sacrifice.”
(In general: In western blotting, separated proteins are transferred to a membrane and probed.)

The subject of data set [4] is SREBP-responsive genes. Conditions: low μM dose, cultured cells; cited from earlier work.

With `C[C@H](CCC(F)(F)C(C)(C)O)[C@H]1CC[C@H]2/C(=C/Cn3nnnc3-c3ccccc3)CCC[C@]12C` [Compound 50, (R)-3,3-Difluoro-2-methyl-6-{(1R,3aS,7aR,E)-7a-methyl-4-[2-(5-phenyl-1H-tetrazol-1-yl)ethylidene]octahydro-1H-inden-1-yl}heptan-2-ol], the serum calcium levels entry in data set [1] is “no detectable increase”. The “hepatic expression of SREBP-response genes ACC1 and FASN versus vehicle” value in data set [2] (10 mg/kg intraperitoneally once every 24 hours, fasted 48 h/refed 48 h, n=3, FIG. 5C) is given as “significantly suppressed”. Besides, the “elevated hepatic expression of the three SREBP-responsive genes ACC1, FASN and SCD1” value in data set [2] (10 mg/kg intraperitoneally, fasting/refeeding, FIG. 5C) is recorded as “mitigated the elevated expression”. Moreover, the “elevated hepatic expression of the four SREBP-responsive genes, repeated examination” value in data set [2] (10 mg/kg, increased number of mice (n=6), FIG. 5E) is “significantly mitigated”. Also, in data set [3], the “increased hepatic expression of SCAP protein after fasting and refeeding” value is on record as “canceled”.

As for `C=C1CC[C@H](O)C/C1=C/C=C1\CCC[C@]2(C)[C@@H]([C@H](C)CCCC(C)(C)O)CC[C@@H]12` [25(OH)D3, 25-hydroxyvitamin D3, reference compound], the cellular lipogenesis result in data set [4] is listed as “inhibits cellular lipogenesis”. For the same compound, in data set [1], the serum calcium levels entry was “markedly increased”.
